From the supplement of paper PMC10331698 come the findings set out here.

Holding throughout (assay): level (log10 ratio to DMSO vehicle control); higher = higher biomarker level / cell amount than vehicle control
Compound in assay [1]: O=S(=O)(O)C(F)(F)C(F)(F)OC(F)(F)C(F)(F)F [Perfluoro(2-ethoxyethane)sulfonic acid] (in DMSO)
As to the method: (§1)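 BioMAP Diversity Plus panel of 12 human primary cell co-culture systems (3C, 4H, LPS, SAg, BT, BF4T, BE3C, CASM3C, HDF3CGF, KF3CT, MyoF, Mphg). Compounds were added 1 h before stimulation and left for 24 h (MyoF 48 h; BT 72 h for soluble read-outs or 6 d for IgG). Biomarkers were read by ELISA, cytotoxicity by SRB, PBMC viability and proliferation by Alamar Blue. Each well value was divided by the mean of 8 DMSO control wells on the same plate and log10 transformed; duplicate blinded samples were tested at 4 concentrations.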

Compound in the next assay: O=C(O)C(F)(F)C(F)(F)C(F)(F)C(F)(F)C(F)(F)C(F)(F)C(F)(F)C(F)(F)C(F)(F)C(F)(F)F [Perfluoroundecanoic acid] (in DMSO)
The settings on record: 6700 nM. As to the method: as §1

Compound in assay [2]: O=C(O)C(F)(F)OC(F)(F)C(F)(F)OC(F)(F)C(F)(F)OC(F)(F)C(F)(F)C(F)(F)C(F)(F)F [Perfluoro-3,6,9-trioxatridecanoic acid] (in DMSO)
The note with it: 6700 nM. As to the method: as §1

Compound in assay [3]: O=C(O)C(F)(F)C(F)(F)C(F)(F)OC(F)(F)F [Perfluoro(4-methoxybutanoic) acid] (in DMSO)
As to the method: as §1

Compound in assay [4]: OCCC(F)(F)C(F)(F)C(F)(F)C(F)(F)F [4:2 Fluorotelomer alcohol] (in DMSO)
As to the method:
as §1

Compound in assay [5]: C=C(C)C(=O)OCCC(F)(F)C(F)(F)C(F)(F)C(F)(F)C(F)(F)C(F)(F)C(F)(F)C(F)(F)F [8:2 Fluorotelomer methacrylate] (in DMSO)
As to the method:
as §1

Compound in assay [6]: OCC(F)(F)C(F)(F)C(F)(F)C(F)F [1H,1H,5H-Perfluoropentanol] (in DMSO)
As to the method:
as §1

Compound in assay [7]: O=C(O)C=C(C(F)(F)F)C(F)(F)F [3,3-Bis(trifluoromethyl)-2-propenoic acid] (in DMSO)
As to the method:
as §1

± gives the standard deviation of the averaged measurements.

Turning to BF4T:Keratin 8/18, the “level (log10)” value in assay [1] (6700 nM) is 0.0015 ± 0.012; in assay [1] (20000 nM), -0.01 ± 0.0028; in assay [1] (60000 nM) it was 0.023 ± 0.037; with Perfluoroundecanoic acid, 0 ± 0.014; in assay [2] it was -0.0195 ± 0.079; in assay [3] (6700 nM), 0.0035 ± 0.032. Further, the “level (log10)” value is 0.001 ± 0.05 in assay [3] (20000 nM); 0.013 ± 0.045 in assay [3] (60000 nM); -0.026 ± 0.021 in assay [4] (6700 nM); -0.0185 ± 0.039 in assay [4] (20000 nM); 0.017 ± 0.0028 in assay [4] (60000 nM); -0.019 ± 0.0028 in assay [5] (6700 nM). Further, the “level (log10)” value was 0.0115 ± 0.016 in assay [5] (20000 nM); -0.046 ± 0.033 in assay [6] (6700 nM); 0.006 ± 0.044 in assay [6] (20000 nM); 0.0235 ± 0.023 in assay [6] (60000 nM); -0.012 ± 0.0085 in assay [7] (6700 nM); -0.012 ± 0.0028 in assay [7] (20000 nM). The “level (log10)” value in assay [7] (60000 nM) was found to be 0.007 ± 0.014.

Turning to BF4T:MMP-1, the “level (log10)” value in assay [1] (6700 nM) is -0.002 ± 0.013; in assay [1] (20000 nM) it was -0.0005 ± 0.00071; in assay [1] (60000 nM), 0.0125 ± 0.0064; with Perfluoroundecanoic acid it was -0.0045 ± 0.005; in assay [2], -0.0535 ± 0.012; in assay [3] (6700 nM) it was 0.0065 ± 0.029. In addition, the “level (log10)” value in assay [3] (20000 nM) is 0.0015 ± 0.032; in assay [3] (60000 nM), 0.0095 ± 0.011; in assay [4] (6700 nM) it was -0.008 ± 0.031; in assay [4] (20000 nM) it was -0.0005 ± 0.036; in assay [4] (60000 nM) it was 0.0085 ± 0.015; in assay [5] (6700 nM) it was -0.01 ± 0.0085. Besides, the “level (log10)” value in assay [5] (20000 nM) is 0.0055 ± 0.00071; in assay [6] (6700 nM), 0.002 ± 0.018; in assay [6] (20000 nM), 0.0095 ± 0.018; in assay [6] (60000 nM), 0.012 ± 0.033; in assay [7] (6700 nM) it was -0.006 ± 0.018; in assay [7] (20000 nM), 0 ± 0.0042. The “level (log10)” value in assay [7] (60000 nM) came to 0.0125 ± 0.021.

Take BF4T:MMP-3: the “level (log10)” value is 0.0015 ± 0.0064 in assay [1] (6700 nM); 0.0105 ± 0.023 in assay [1] (20000 nM); 0.0805 ± 0.067 in assay [1] (60000 nM); -0.002 ± 0.038 with Perfluoroundecanoic acid; -0.0415 ± 0.064 in assay [2]; 0.0015 ± 0.012 in assay [3] (6700 nM). The “level (log10)” value is -0.008 ± 0.014 in assay [3] (20000 nM); 0.0155 ± 0.0078 in assay [3] (60000 nM); -0.0135 ± 0.021 in assay [4] (6700 nM); -0.008 ± 0.013 in assay [4] (20000 nM); -0.011 ± 0.014 in assay [4] (60000 nM); -0.0035 ± 0.019 in assay [5] (6700 nM). Besides, the “level (log10)” value in assay [5] (20000 nM) was 0.0255 ± 0.044; in assay [6] (6700 nM) it was -0.0125 ± 0.0064; in assay [6] (20000 nM), -0.007 ± 0.0099; in assay [6] (60000 nM), 0.002 ± 0.021; in assay [7] (6700 nM), -0.0165 ± 0.00071; in assay [7] (20000 nM), -0.0105 ± 0.0064. The “level (log10)” value in assay [7] (60000 nM) came to 0.0205 ± 0.037.

Take BF4T:MMP-9: the “level (log10)” value in assay [1] (6700 nM) was 0.003 ± 0.042; in assay [1] (20000 nM), -0.0005 ± 0.019; in assay [1] (60000 nM) it was 0.0295 ± 0.0021; with Perfluoroundecanoic acid, -0.056 ± 0.04; in assay [2], -0.106 ± 0.079; in assay [3] (6700 nM), 0.0095 ± 0.032. In addition, the “level (log10)” value in assay [3] (20000 nM) is 0.006 ± 0.034; in assay [3] (60000 nM), 0.027 ± 0.028; in assay [4] (6700 nM), -0.0075 ± 0.03; in assay [4] (20000 nM), -0.013 ± 0.0071; in assay [4] (60000 nM), -0.011 ± 0.031; in assay [5] (6700 nM) it was -0.002 ± 0.059. Moreover, the “level (log10)” value is 0.026 ± 0.061 in assay [5] (20000 nM); -0.001 ± 0.0085 in assay [6] (6700 nM); 0.0065 ± 0.019 in assay [6] (20000 nM); 0.0035 ± 0.013 in assay [6] (60000 nM); -0.0155 ± 0.0021 in assay [7] (6700 nM); -0.0185 ± 0.018 in assay [7] (20000 nM). Moreover, the “level (log10)” value in assay [7] (60000 nM) is -0.004 ± 0.021.

As for BF4T:PAI-I, the “level (log10)” value was -0.002 ± 0.0014 in assay [1] (6700 nM); -0.002 ± 0.0028 in assay [1] (20000 nM); 0.0105 ± 0.021 in assay [1] (60000 nM); 0.007 ± 0.0085 with Perfluoroundecanoic acid; -0.011 ± 0.011 in assay [2]; 0.0015 ± 0.011 in assay [3] (6700 nM). Moreover, the “level (log10)” value in assay [3] (20000 nM) is -0.008 ± 0.014; in assay [3] (60000 nM), 0.014 ± 0.035; in assay [4] (6700 nM), -0.0075 ± 0.023; in assay [4] (20000 nM) it was 0.0005 ± 0.035; in assay [4] (60000 nM), 0.0005 ± 0.00071; in assay [5] (6700 nM) it was -0.0075 ± 0.0092. For the same test system, the “level (log10)” value amounted to 0.0055 ± 0.012 in assay [5] (20000 nM); 0.01 ± 0.0085 in assay [6] (6700 nM); 0.0095 ± 0.018 in assay [6] (20000 nM); 0.0215 ± 0.026 in assay [6] (60000 nM); 0.0055 ± 0.0021 in assay [7] (6700 nM); 0.001 ± 0.0042 in assay [7] (20000 nM). In assay [7] (60000 nM), the “level (log10)” value was -0.0055 ± 0.021.

For the test system BF4T:SRB, the “level (log10)” value in assay [1] (6700 nM) is 0.0045 ± 0.015; in assay [1] (20000 nM) it was 0.001 ± 0.0099; in assay [1] (60000 nM), 0.004 ± 0.018; with Perfluoroundecanoic acid, -0.0115 ± 0.0035; in assay [2], -0.038 ± 0.013; in assay [3] (6700 nM) it was -0.0105 ± 0.00071. The “level (log10)” value in assay [3] (20000 nM) was -0.0135 ± 0.0064; in assay [3] (60000 nM), -0.0105 ± 0.0035; in assay [4] (6700 nM), -0.0075 ± 0.00071; in assay [4] (20000 nM) it was -0.0105 ± 0.0078; in assay [4] (60000 nM), -0.0045 ± 0.012; in assay [5] (6700 nM), -0.0045 ± 0.0035. Besides, the “level (log10)” value in assay [5] (20000 nM) was -0.0005 ± 0.00071; in assay [6] (6700 nM) it was -0.0055 ± 0.0021; in assay [6] (20000 nM) it was 0.001 ± 0.0085; in assay [6] (60000 nM), 0.002 ± 0.0014; in assay [7] (6700 nM), 0.0015 ± 0.005; in assay [7] (20000 nM), -0.006 ± 0.011. The “level (log10)” value in assay [7] (60000 nM) turned out to be 0.0045 ± 0.0092.
